Laboratory results: article PMC5861052, “Uptake and accumulation of Microcystin-LR based on exposure through drinking water: An animal model assessing the human health risk” (Scientific Reports, 2018)
Values joined by “and” are separate entries in the source; they are usually repeats but may differ in a detail not shown here. Equal values may be shown once.

Assays:
[1] = type: in vivo; settings: pig
Protocol: (§1) This study was performed as described previously using twelve male Duroc pigs, six control and six treated pigs. Housing, diet and treatment were as described previously with the following modifications:
(§2) Animals were subjected to a fourteen-day acclimatization period prior to assignment to control or treated groups. Over the study period, each animal from the treatment group received a daily dose of 2 µg toxin/kg body weight MC-LR by oral gavage, 50 times the provisional WHO TDI, with the average dose for the six treated animals outlined in Table 4
(§3) , with the MC-LR for dosing prepared as described above. At day 40 (approximately 5 weeks) treated and control animals were euthanized. Sample collection and storage was as outlined for experiment 1.
(§4) Porcine tissue samples (50 mg) were weighed into 50 mL round bottomed flasks with the conversion and subsequent enrichment of MMPB carried out as outlined in ‘Analysis of conjugated MC-LR in porcine tissue’ (see Supplementary Information online). Samples were initially screened for MMPB, with any samples found to contain toxin quantified by use of a six point extracted matrix matched calibration curve in the range 0.010–0.25 µg/g dw using pooled control tissue of the relevant tissue, with calibrant levels achieved by spiking with the MMPB standard at a concentration of either 0.5 or 0.05 µg/mL after pH adjustment.
Conversion of any bound MC-LR and subsequent extraction was performed according to a modified method derived from Neffling et al. (2010) and developed using 50 mg aliquots of lyophilised homogenised, pooled porcine tissue from the control animals. 50 mg of tissue was weighed into a 50 mL round bottomed flask and 5 mL of oxidation solution at a concentration of 0.1 M was added, comprising both potassium permanganate (KMnO4) and sodium (meta) periodate (NaIO4) at 0.2 M mixed 1:1 v/v. The mixture was stirred at room temperature for 2 h whereby the colour of the solution turned from purple (colour of KMnO4) to red/brown (colour of the reduced product MnO2). A further 4 mL oxidation solution at 0.1 M was added turning the solution back to purple. The reaction was immediately quenched by addition of 1 mL sodium bisulphite solution (40% v/v). Following this, samples were transferred to 15 mL tubes and 10% sulphuric acid was added drop wise until the pH was acidic (~ 2). Samples were then centrifuged at 4 500 rpm for 15 min and the supernatant removed and loaded directly onto SPE cartridges.
Sample enrichment and clean-up was carried out using OASIS PRiME HLB cartridges, with samples loaded onto the cartridges, allowed to drip through under gravity then washed with water and 20% aqueous methanol (v/v). Bound MMPB was eluted into clean glass tubes using 2 x 1.5 mL 80% aqueous methanol (v/v) and the eluents evaporated to dryness under a gentle stream of nitrogen using a turbovap set at 45 °C. Samples were reconstituted in 100 µL 80% aqueous MeOH (v/v) and transferred to a micro vial for analysis.
Analysis of MMPB was performed as described above in ‘Analysis of free MC-LR and MC-LR-GSH in porcine tissues’. Detection and quantification was achieved using MRM, with MMPB seen as the [M + H]^+ ion and the transitions optimised manually as follows:
Separation was achieved using the same column and mobile phases as detailed above in ‘Analysis of free MC-LR in porcine serum’ with the flow rate set at 0.4 ml/min. The gradient used to achieve separation was as described above with the ACN initially held at 10%, then returned to 10% prior to the next injection.

[2] = in vivo, cited from earlier work
Protocol: Looking at the study by Tencalla et al. (1997) in which rainbow trout were dosed with MC-LR also via oral gavage, they estimated the uptake of MC-LR into blood to be approximately 4.4% of the dose administered of 5700 µg MC-LR/kg bw[51]. Based on the findings reported by Tencalla et al. and taking the average bodyweight of the six animals in the final week of dosing in experiment (2) of our study, the average dose administered to the six animals equates to 96 µg of MC-LR per day for the last week. […].

[3] = Free MC-LR in porcine serum, experiment 2 (high dose), UPLC-MS/MS; settings: pig, in vivo, po
Protocol: as §1, §2
, with the MC-LR for dosing prepared as described above. At day 40 (approximately 5 weeks) treated and control animals were euthanized. Sample collection and storage was as outlined for experiment 1. […]
Analysis was performed using an ACQUITY UPLC i-Class system coupled to a Xevo TQ-S (triple quadrupole MS/MS) Mass Spectrometer (Waters, Manchester, UK). Detection and quantification was achieved using targeted analysis using Multiple Reaction Monitoring (MRM) and operated in ESI^+ mode. Analyte precursor ions were identified as [M + H]^+ for both MC-LR and NOD (IS) with the quantifying (Q) and qualifying (q) ions used as follows:
To quantify any MC-LR detected, a seven point extracted matrix matched calibration curve in the range 0.2-100 ng/mL serum was prepared using the ‘negative’ porcine serum. […]

[4] = Free MC-LR in porcine serum, experiment 1 (low dose), UPLC-MS/MS; settings: pig, in vivo, po
Protocol: The animal studies were performed under licence (PPL 2755 - Chemical contaminants in food producing animals) issued by the Department of Health, Social Services and Public Safety in Northern Ireland (NI) in accordance with the Animal (Scientific Procedures) Act (1986), and under the approval of the Agri-Food and Biosciences Institute (AFBI) Animal Welfare and Ethical Review Body (AWERB) and associated EU Directive 2010/63/EU for animal experiments. The study was performed on behalf of Queen’s University Belfast (QUB) by the Veterinary Sciences Division, Agri-Food and Biosciences Institute, Belfast, Northern Ireland. […]
Following the acclimatization period of seven days, eight healthy pigs were selected randomly for the control group and the remaining eight healthy pigs assigned to the treatment group. Before treatment, animals were examined by a veterinarian to confirm clinical health and then weighed, with the weight and identification of animals in each group recorded. […]
Analysis was performed using an ACQUITY UPLC i-Class system coupled to a Xevo TQ-S (triple quadrupole MS/MS) Mass Spectrometer (Waters, Manchester, UK). Detection and quantification was achieved using targeted analysis using Multiple Reaction Monitoring (MRM) and operated in ESI^+ mode. […]

[5] = Free MC-LR in porcine tissues, experiment 1 (low dose), UPLC-MS/MS; settings: pig, in vivo, po
Text: (§5) Following the acclimatization period of seven days, eight healthy pigs were selected randomly for the control group and the remaining eight healthy pigs assigned to the treatment group. Before treatment, animals were examined by a veterinarian to confirm clinical health and then weighed, with the weight and identification of animals in each group recorded. Over the study period (13 weeks), each animal from the treatment group received a low dose of MC-LR daily by oral gavage. The dose administered was 0.04 µg toxin/kg body weight, the provisional World Health Organization Tolerable Daily Intake (WHO TDI), based on the NOAEL derived from the animal experiment conducted by Fawell et al. (1999), with the average dose for the eight treated animals outlined in Table 3. Briefly, a 1 mg/mL solution of MC-LR was prepared by the addition of 250 µL of ethanol followed by 750 µL water. The appropriate dilutions were then performed depending on the weight of the animal to ensure the correct dose was administered in 5 mL of water.
Serum was collected weekly, starting at day -7 from treated and control animals as the pre-bleeds. […]
(§6) In order to quantify any toxins identified, a six-point extracted matrix-matched calibration curve in the range 0.001–0.1 μg/g dw was prepared using pooled control samples of the relevant tissue. […]

[6] = Bound MC-LR (MMPB) in porcine liver by Lemieux oxidation, experiment 1; settings: pig, in vivo, po
Text: as §5, with “Briefly, a 1 mg/mL solution of MC-LR was prepared by the addition of 250 µL of ethanol followed by 750 µL water. The appropriate dilutions were then performed depending on the weight of the animal to ensure the correct dose was administered in 5 mL of water.” left out
as §4, with “adjustment. […]” for “adjustment.”

[7] = Free MC-LR in porcine tissues, experiment 2 (high dose), UPLC-MS/MS; settings: pig, in vivo, po
Protocol: as §1, §2, §3
Tissue samples (see Supplementary Information online) (100 mg) were spiked with 10 μL of the NOD (IS) at 0.5 μg/mL and extracted by addition of 1.5 mL of 80% aqueous MeOH (v/v) (0.5% acetic acid v/v), vortex mixed briefly and sonicated at 35–40 °C for 45 min before centrifugation at 16 000 g for 15 min. […]
as §6

[8] = Parent ion scan of Adda fragment (m/z 135) in porcine serum; settings: pig, in vivo
Protocol: With MC-LR and its congeners, as well as any potential metabolites of MC-LR having in common the shared Adda group ((2S, 3S, 8S, 9S)-3-amino-9-methoxy-2, 6, 8-trimethyl-10-phenyldeca-4(E), 6(E)-dienoic acid) (Fig. 1)[8], serum samples were analysed for parent ions of Adda, with this fragment having an m/z of 135. This was optimised using the MC-LR standard and indicated a peak at the same retention time as when analysed in MRM mode, with the retention window extended to allow identification of any potential MC-LR metabolites.
A selection of serum sample time points from experiment (1) were chosen (n = 32), with; t = 14, t = 42, t = 70 and t = 98 correlating to the start, one, two and three months of treatment for each animal, as well as serum from all time points (n = 36) for each animal from experiment (2).

[9] = mouse, in vivo, iv; cited from earlier work
Protocol: […]. In another experiment conducted by Robinson et al. (1991) using radiolabelled MC-LR to track its distribution in mice, levels of radiolabelled MC-LR peaked in the liver after only 30 min[52], although in this case the mice were injected intravenously via the tail vein rather than by oral g ...

In the case of COC(Cc1ccccc1)C(C)C(=O)O (stereo not drawn) [MMPB, 2-methyl-3-methoxy-4-phenylbutyric acid], the “concentration of MMPB detected in liver (average estimated value)” value ([1]; livers of T2, T4 and T5, MC-LR oral gavage 2 µg/kg bw daily, Lemieux oxidation, dry weight) is reported as 14.4 ng/g dw.
For Microcystin-LR [MC-LR], the “uptake of MC-LR into blood as percentage of dose administered” value ([2]; po) is listed as “approximately 4.4%”, the “uptake of MC-LR into the liver” value ([2]; po) is listed as 1.7% and the “half-life in the blood” value [2] is listed as 3.3 h. The “time after which the liver indicated the presence of MC-LR” value [2] was 1 h, the “time of maximum levels in the liver after exposure” value [2] was 3 h and the “free MC-LR in serum” value [3] was “negative”. The “free MC-LR in serum” value [4] was under 0.03 ng/mL, the “free MC-LR in liver, kidney, large and small intestine tissues” value [5] was “none of the tissues contained any trace” and the “MC-LR present in liver” value ([1]; in vivo) was 23.1 µg and 21.9 µg and 34.1 µg. The “Uptake of MC-LR by liver as percentage of the dose administered” value ([1]; in vivo) was 1.1% and 0.8% and 1.5%, the “average amount of bound MC-LR accumulated in liver” value ([1]; in vivo) was 26.4 ± 5.5 µg and the “average uptake of MC-LR by liver as percentage of total dose administered” value ([1]; in vivo) was 1.1%. For the same compound, the “estimated bound MC-LR in liver (average)” value ([1]; in vivo) was 23.2 ng/g ww, the “bound MC-LR (MMPB) in liver tissue” value [6] was “negative” and the “free MC-LR in all other tissue samples (liver, kidney, small and large intestine, spleen, brain)” value [7] was “free of MC-LR residues”. For the same compound, the “peaks in parent ion scan of Adda fragment m/z 135 in serum (free MC-LR or MC-LR metabolites)” value [8] was “negative” and the “time at which levels of radiolabelled MC-LR peaked in the liver” value [9] was 30 min.
